Source: PMC13376213, “Systematic discovery of motif-based interactions of the auxiliary domains of USP family deubiquitinases” (Nature Communications, 2026)
Read-outs that look alike come from different tables or passages of the source. Ends that are not written are not given here.

How the values were obtained:
USP33 DUSP2 domain [1] = biological target: T1, USP33 DUSP2 domain (Homo sapiens, UniProt Q8TEY7); assay: FP-monitored affinity measurements, USP33 DUSP2; type: binding
T1 construct: USP33_DUSP2; Q8TEY7; DUSP2; 806; 921; 6xHis-GST (N, cleaved yes); made in house; host or cells: Escherichia coli BL21-Gold (DE3)
T1 sequence (Q8TEY7 with tags, fused parts or gaps): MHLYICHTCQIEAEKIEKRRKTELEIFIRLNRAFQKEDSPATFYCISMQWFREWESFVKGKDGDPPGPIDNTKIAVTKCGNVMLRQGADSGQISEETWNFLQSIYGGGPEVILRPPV
Method: (§1) Proteins were expressed in Escherichia coli (E.coli) BL21-Gold (DE3) bacteria. The cDNAs encoding N-terminal 6-histidine-glutathione S-transferase tagged (6xHis-GST), 6xHis-tagged or GST-tagged protein domains in pETM33, pETM11, pGEX6P1 expression vectors respectively, were obtained from Genescript or kindly provided by MRC-PPU (Suppl. Data 1) The bacteria were transformed with the plasmid and grew at 37 °C in 2YT (5 g/L NaCl, 16 g/L tryptone and 10 g/L yeast extract) supplemented with Kanamycin (30 μg/mL) until reaching an OD600 of 0.7. Protein expression was induced with 0.3 mM isopropyl β-D-1 thiogalactopyranoside (IPTG) for 18 h at 18 °C while shaking. For zinc-finger domains, 50 μM of ZnSO4 was added during expression. The bacterial cultures were pelleted for 15 minutes at 4000 x g at 4 °C and stored at −20 °C until purification. The pellets were resuspended in lysis buffer (1× phosphate-buffered saline (PBS), 0.5 % Triton-X, 5 mM MgCl2, 10 μg/mL lysozyme, cOmplete^TM EDTA-free protease inhibitor cocktail (Roche), 10 μg/mL DNAseI) and incubated for 1 h shaking at 4 °C. […] The supernatant was incubated with glutathione (GSH) Sepharose (Cytiva) or Ni2+ Sepharose (Cytiva) for 1 h at 4 °C while shaking. The beads with the bound protein were washed with 1x PBS and eluted with 10 mM reduced glutathione in 50 mM Tris pH 8.0. For fluorescence polarization experiments, the proteins were not eluted from the beads, and the 6xHis-GST tag was cleaved overnight on GSH Sepharose beads at 4 °C while shaking with PreScission Protease in cleavage buffer (50 mM Tris pH 7.5, 150 mM NaCl, 1 mM DTT). The sample containing the cleaved domain was separated from the tag and protease and buffer-exchanged to 50 mM sodium phosphate buffer pH 7.4 with 1 mM DTT using a PD-10 desalting column (Cytiva). The purity and size of the proteins were analyzed by SDS-PAGE electrophoresis.
(§2) The measurements were performed at room temperature in a non-binding black half area 96-well plate (Corning) with a total volume of 50 μL per well. Peptides were obtained from GeneCust (France) with >95% purity. FITC-labeled peptides (N-terminally FITC-labeled without spacer and C-terminally amidated) were dissolved in dimethyl sulfoxide (DMSO), and unlabeled peptides (N-terminally acetylated and C-terminally amidated) were dissolved in 50 mM phosphate buffer pH 7.4. Saturation measurements were performed using a serial dilution of the protein domains in phosphate buffer (25 μL) and the addition of 10 nM FITC-labeled peptide (in phosphate buffer supplemented with 2 mM DTT) (25 μL). […] All measurements were performed in three technical replicates. The data were analyzed using GraphPad Prism version 9.2.0 for MacOS (GraphPad Software, San Diego, California USA, www.graphpad.com). The saturation curves were fitted to the quadratic equation, and the displacement curves were fitted to a sigmoidal dose-response equation as described previously.

USP20 DUSP2 domain [2] = biological target: T2, USP20 DUSP2 domain (Homo sapiens, UniProt Q9Y2K6); assay: FP-monitored affinity measurements, USP20 DUSP2; type: binding
T2 construct: USP20_DUSP2; Q9Y2K6; DUSP2; 776; 894; 6xHis-GST (N, cleaved yes); made in house; host or cells: Escherichia coli BL21-Gold (DE3)
T2 sequence (Q9Y2K6 with tags, fused parts or gaps): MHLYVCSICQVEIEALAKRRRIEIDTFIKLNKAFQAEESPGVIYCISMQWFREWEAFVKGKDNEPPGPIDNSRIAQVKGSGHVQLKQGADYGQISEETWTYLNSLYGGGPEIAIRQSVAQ
Method: as §1, §2

USP33 DUSP2 domain [3] = biological target: T1, USP33 DUSP2 domain; assay: Peptide SPOT array, USP33 DUSP2; type: binding; settings: average normalised to the highest intensity (CCDC88B = 100)
Method: (§3) Peptides were synthesized on cellulose membranes with standard Fluoroenylmethylox-ycarbonyl (Fmoc) chemistry using a Multipep automated synthesizer at INTAVIS (Tübingen, Germany) or ordered from JPT (PepSpots). The membranes were activated with methanol for 5 min and washed three times for 5 min with TBST (50 mM Tris, 137 mM NaCl, 2.7 mM KCl, pH 8.0, 0.05% Tween-20). The membranes were incubated with blocking buffer (5% skim milk powder in TBST) for 2 h at room temperature while shaking. The membranes were incubated with the GST-tagged protein diluted at the desired concentration in blocking buffer and incubated overnight at 4 °C while shaking. The membrane was rinsed 3 times with TBST and incubated with HRP-conjugated anti-GST antibody (Cytiva, RPN1236; 1:3000 dilution) in blocking buffer for 1 h at 4 °C while shaking. […] The images were analyzed in Fiji (ImageJ2 version 2.9.0).

USP20 DUSP2 domain [4] = biological target: T2, USP20 DUSP2 domain; assay: Peptide SPOT array, USP20 DUSP2; type: binding; settings: for Average: peptide SPOT array intensity minus background, mean of 2 replicas; for Average / Normalize to peptide with higher intensity %: sheet S5A; for Normalize to higher intensity (%) / Normalize to peptide with higher intensity %: peptide SPOT array; for Normalize to higher intensity (%): USP20 DUSP2, average normalised to the highest intensity (ARNTL2 = 100); for Normalize to peptide with higher intensity %: average normalized to the peptide with highest intensity (ARNTL2 = 100);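 as to all read-outs here: GST-tagged domain probed overnight at 4 °C on peptides made on cellulose membranes, bound protein detected via HRP-coupled anti-GST antibody, spot intensity from image analysis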
Method: as §3

FLAG-USP33 = assay: IP-MS of FLAG-USP33 and variants vs empty vector; type: cell-based, human; settings: IP-MS
Method: For transfection, 1x10^6 HEK293 cells were seeded in 10 cm dishes with DMEM, 10% FBS, 1% L-G (without antibiotic) medium, incubated at 37 °C, with 5 % CO2 for 24 h. Cells were transfected with a transfection mix containing […] of Opti-MEM (Thermo Fisher Scientific), 20 μL of PEI stock (1 mg/mL) and […] of the desired cDNA. For co-transfection, 2.5 μg of DNA of each plasmid was used. The mix was vortexed for 15 s and incubated at room temperature for 15–20 min. The transfection mix was added to the dish and gently mixed. Plates were incubated at 37 °C for 36–48 h before harvesting. For USP33 constructs, 5 μM Bortezomib (proteasome inhibitor) was added 4 hours before harvesting the cells.
FLAG fusion proteins were immunoprecipitated from HEK293 cells transfected with plasmids encoding the protein of interest using the anti-FLAG M2 affinity gel from Sigma-Aldrich. Cell pellets were lysed with 100–200 μL/per dish lysis buffer (Pierce RIPA buffer, 1X protease inhibitor (Roche), 50 unit/μL of Benzonase Nuclease) rotating at 4 °C for 30–45 min. […] The cell lysate was clarified by centrifugation at 17,000 x g, at 4 °C for 12 min, and the supernatant was transferred to a clean, pre-chilled low-binding Eppendorf tube. […] The IP samples were centrifuged at 6500 x g at 4 °C for 30 s. The supernatant containing the unbound proteins was transferred to a clean tube. The resin was washed three times with 500 μL of TBS, centrifuged at 6500 x g at 4 °C for 30 s. The bound FLAG fusion protein was eluted with 100 μL of 150 ng/μL 3X FLAG peptide (Sigma) in TBS and incubated in the cold room for 1 h or overnight. The tube was centrifuged at 6500 x g at 4 °C for 30 s; the eluted proteins were transferred to a clean tube. The eluted proteins were prepared for analysis by western blot or Mass Spectrometry.
Immunoprecipitation (IP) was carried out as described above; four technical replicates of each IP condition were performed, and the empty vector was used as a negative control. The eluted protein was processed following the Strap-micro protocol (Protifi). The IP elution containing 1–100 μg protein was 1:1 mixed with 2X lysis buffer (10% SDS, 100 mM TEAB pH 8.5). […] Samples were vortexed, mixed with 165 μL of 100 mM TEAB in 90% methanol, and passed through an S-Trap micro column at 4000 g for 30 s to trap the proteins. The column was washed with 150 μL of 100 mM TEAB in 90% methanol (at 4,000 x g for 30 seconds) three times. The S-Trap column was centrifuged again and transferred to a clean 2 mL tube for digestion with 20 μL of digestion buffer (1 μg trypsin per 10 μg sample in 50 mM TEAB), at 37 °C overnight in a thermomixer without shaking. The digested peptides were eluted with […] of 50 mM TEAB in water, […] of 0.2 % formic acid in water, and […] of 50 % acetonitrile in water, centrifuging at 4000 x g for 1 min each time. The three elutions were pooled in a low-binding tube, placed on dry ice until frozen, dried in a SpeedVac vacuum (Thermo Scientific), and proceeded with the LCMS analysis.
Eluted peptides were resuspended in water supplemented with 0.015% dodecyl maltoside and 0.1% formic acid and were injected on a Vanquish Neo UHPLC System operating in trap and elute mode coupled to an Orbitrap Astral Mass Spectrometer (Thermo Fisher Scientific). […] Eluted peptides were analyzed using data-independent acquisition mode on the mass spectrometer.
Peptides were searched against the Uniprot Swissprot Human database (released on 02/01/2023) supplemented with the USP20 and USP33 mutants using DiaNN (v1.9.0)[62] operating in library-free mode. Data filtering and statistical analysis were carried out in Python (v3.9.0) using the packages pandas, numpy, sklearn, scipy, rpy2, Plotnine, and Plotly and R (v4.4.3) using the package limma.
Protein groups identified with a single peptide or quantified in fewer than three replicates in at least 1 condition were filtered out. […]

USP20 zf-UBP domain = biological target: T3, USP20 zf-UBP domain (Homo sapiens, UniProt Q9Y2K6); assay: FP-monitored affinity measurements, USP20 zf-UBP; type: binding; settings: USP20_UBP; FP displacement by unlabelled peptide; read-out: KD
T3 construct: USP20_UBP; Q9Y2K6; zf-UBP; 99; 6xHis-GST (N, cleaved yes); made in house; host or cells: Escherichia coli BL21-Gold (DE3)
T3 sequence (Q9Y2K6 4-99): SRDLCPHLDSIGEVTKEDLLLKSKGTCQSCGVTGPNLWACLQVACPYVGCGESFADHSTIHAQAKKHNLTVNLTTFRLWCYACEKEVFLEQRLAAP
Method: The measurements were performed at room temperature in a non-binding black half area 96-well plate (Corning) with a total volume of 50 μL per well. […] All measurements were performed in three technical replicates. […] The saturation curves were fitted to the quadratic equation, and the displacement curves were fitted to a sigmoidal dose-response equation as described previously[68].

[5] = competitive FP: unlabeled peptide (N-acetylated, C-amidated) against protein with 10 nM FITC-labeled peptide, 50 mM phosphate pH 7.4, room temperature, technical triplicate, read-out: KD, USP33 DUSP2
[6] = competitive FP: unlabeled peptide (N-acetylated, C-amidated) against protein with 10 nM FITC-labeled peptide, 50 mM phosphate pH 7.4, room temperature, technical triplicate, read-out: KD, USP20 DUSP2
[7] = USP33_DUSP2, FP displacement by unlabelled peptide, read-out: KD
[8] = USP20_DUSP2, FP displacement by unlabelled peptide, read-out: KD

Row | Compound | Kd (USP33 DUSP2 domain [1]; [7]) [µM] | Kd (USP20 DUSP2 domain [2]; [8]) [µM] | Normalize to higher intensity (%) (USP33 DUSP2 domain [3]) | Average (USP20 DUSP2 domain [4]) | Normalize to higher intensity (%) (USP20 DUSP2 domain [4]) | Normalize to peptide with higher intensity % (USP20 DUSP2 domain [4]) [%] | other results
1 | CC[C@H](C)[C@H](NC(=O)[C@H](Cc1ccc(O)cc1)NC(=O)[C@@H]1CCCN1)C(=O)N1CCC[C@H]1C(=O)N[C@@H](CCSC)C(=O)N[C@@H](CC(=O)O)C(=O)N[C@@H](CC(=O)O)C(=O)N[C@@H](CC(=O)O)C(=O)N[C@@H](C)C(=O)N[C@@H](CCC(N)=O)C(=O)N[C@@H](CC(C)C)C(=O)N[C@@H](CCCNC(=N)N)C(=O)N[C@@H](CO)C(=O)N[C@@H](Cc1ccccc1)C(=O)N[C@@H](CC(=O)O)C(=O)N[C@@H](CCC(N)=O)C(=O)N[C@@H](CC(C)C)C(=O)N[C@@H](CO)C(=O)O [F572A] |  |  |  |  |  |  | Kd (USP33 DUSP2 domain [1]; [5]): > 900 µM; Kd (USP20 DUSP2 domain [2]; [6]): > 600 µM
2 | CC[C@H](C)[C@H](NC(=O)[C@H](Cc1ccc(O)cc1)NC(=O)[C@@H]1CCCN1C(C)=O)C(=O)N1CCC[C@H]1C(=O)N[C@@H](CCSC)C(=O)N[C@@H](CC(=O)O)C(=O)N[C@@H](CC(=O)O)C(=O)N[C@@H](CC(=O)O)C(=O)N[C@@H](C)C(=O)N[C@@H](CCC(N)=O)C(=O)N[C@@H](CC(C)C)C(=O)N[C@@H](CCCNC(=N)N)C(=O)N[C@@H](CO)C(=O)N[C@@H](Cc1ccccc1)C(=O)N[C@@H](CC(=O)O)C(=O)N[C@@H](CCC(N)=O)C(=O)N[C@@H](CC(C)C)C(=O)N[C@@H](CO)C(N)=O [HIF1A_F572A] | ~930 | ~589 |  |  |  |  | 
3 | Ac-PYIPMDDDFQARSFDQLS-NH2 [HIF1A_L574A] | ~227 | 89 |  |  |  |  | 
4 | Ac-PYIPMDDKFQLRSFDQLS-NH2 [HIF1A_D571K] | ~145 | 85 |  |  |  |  | 
5 | Ac-PYIPMDGEDFQLSPICPE-NH2 [HIF2A] | ~1180 | ~235 |  |  |  |  | 
6 | Ac-PYIPMDKDFQLRSFDQLS-NH2 [HIF1A_D570K] |  | 18.8 |  |  |  |  | 
7 | Ac-SDDDLAWNIAPQGLQ-NH2 [GPR137B348-362] | ~228 | 10.2 | -9.797 | 1.607 | 0.8997 | 0.8997 | Kd (USP33 DUSP2 domain [1]; [5]): > 200 µM
8 | IPMDDDFQLRSFDQLS [HIF1A] | 1.5 | 18.7 | 69.9644 | 35.4167 | 19.83 | 19.8322 | 
9 | NBAS |  |  |  |  |  |  | log2_FC (FLAG-USP33; FLAG-USP33-ΔDUSP2 vs EV, comparison bh_2 Sample_Limma_ImpMedInt_USP33_DUSP2_domain/EV): 2.843; log2_FC (FLAG-USP33; FLAG-USP33-ΔUBP vs EV, comparison bh_2 Sample_Limma_ImpMedInt_USP33_UBP_domain/EV): 2.886; log2_FC (FLAG-USP33; FLAG-USP33 UBP mutant vs EV, comparison USP33_E86K_D90R/EV, Limma): 2.804
10 | PDVVDDFQLQHRHGPG [MFSD2B] | 0.75 | 44.7 | 51.523 | -6.828 | -3.824 | -3.824 | 
11 | PYIPMDGEDFQLSPICPE [HIF2A531-548] |  |  |  |  |  |  | Kd (USP33 DUSP2 domain [1]; [5]): > 1000 µM; Kd (USP20 DUSP2 domain [2]; [6]): > 200 µM
12 | QLEEELFQLRQGPAGL [CCDC88B] | 40.1 | 22.4 | 100 | 62.4217 | 34.95 | 34.9541 | 
13 | YAQSKTQLEVRPV [ROBO1] |  |  |  |  |  |  | Kd (USP20 zf-UBP domain): ~81.6 µM
